Experimental data taken from PubChem BioAssay (NCI).
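GI50 is the concentration that inhibits growth by half. TGI marks complete inhibition of growth.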

What was measured:
Assay in all cases: NCI tumour cell line growth inhibition, 384-well format
[1] = test system: HOP-62 NSCLC
[2] = test system: SR leukemia
[3] = test system: KM12 colon
[4] = test system: 786-0 renal
[5] = test system: HOP-92 NSCLC
[6] = test system: TK-10 renal
[7] = test system: SW-620 colon
[8] = test system: M14 melanoma
[9] = test system: MDA-MB-468 breast
[10] = test system: A549 NSCLC
[11] = test system: MALME-3M melanoma
[12] = test system: HCT-15 colon
[13] = test system: SF-268 CNS
[14] = test system: RXF 393 renal
[15] = test system: IGROV1 ovarian
[16] = test system: BT-549 breast
[17] = test system: SNB-19 CNS
[18] = test system: A498 renal
[19] = test system: MCF7 breast
[20] = test system: DU-145 prostate
[21] = test system: HL-60(TB) leukemia
[22] = test system: EKVX NSCLC
[23] = test system: NCI-H23 lung
[24] = test system: T-47D breast
[25] = test system: UACC-257 melanoma
[26] = test system: CCRF-CEM leukemia
[27] = test system: OVCAR-3 ovarian
[28] = test system: RPMI-8226 leukemia
[29] = test system: MOLT-4 leukemia
[30] = test system: SK-MEL-5 melanoma
[31] = test system: CAKI-1 renal
[32] = test system: NCI-H522 lung
[33] = test system: NCI-H322M lung
[34] = test system: SF-539 CNS
[35] = test system: OVCAR-8 ovarian
[36] = test system: NCI/ADR-RES ovarian
[37] = test system: NCI-H460 NSCLC
[38] = test system: U251 glioblastoma
[39] = test system: ACHN renal
[40] = test system: NCI-H226 lung
[41] = test system: PC-3 prostate
[42] = test system: SK-MEL-2 melanoma
[43] = test system: SF-295 CNS
[44] = test system: HS 578T breast
[45] = test system: OVCAR-5 ovarian
[46] = test system: UACC-62 melanoma
[47] = test system: SK-MEL-28 melanoma
[48] = test system: OVCAR-4 ovarian
[49] = test system: SK-OV-3 ovarian
[50] = test system: SN12C renal
[51] = test system: MDA-MB-231 breast
[52] = test system: COLO 205 colon
[53] = test system: HT29 colon
[54] = test system: HCC-2998 colon
[55] = test system: SNB-75 CNS
[56] = test system: MDA-MB-435 melanoma
[57] = test system: HCT-116 colon
[58] = test system: LOX IMVI melanoma
[59] = test system: UO-31 renal
[60] = test system: K-562 leukemia

Structure (SMILES): Nc1nc(F)nc2c1ncn2C1OC(CO)C(O)C1O (stereo not drawn)
- GI50 [1]: 5.5 µM
- TGI [1]: 21 µM
- GI50 [2]: > 100 µM
- TGI [2]: > 100 µM
- GI50 [3]: 26.4 µM
- TGI [3]: > 100 µM
- GI50 [4]: 17.8 µM
- TGI [4]: 56 µM
- GI50 [5]: 7.81 µM
- TGI [5]: 56.8 µM
- GI50 [6]: > 100 µM
- TGI [6]: > 100 µM
- GI50 [7]: 49.8 µM
- TGI [7]: > 100 µM
- GI50 [8]: 2.6 µM
- TGI [8]: 8.62 µM
- GI50 [9]: 26.5 µM
- TGI [9]: 82.8 µM
- GI50 [10]: 29.8 µM
- TGI [10]: > 100 µM
- GI50 [11]: 1.81 µM
- TGI [11]: 8.06 µM
- GI50 [12]: 32.2 µM
- TGI [12]: > 100 µM
- GI50 [13]: 19.8 µM
- TGI [13]: 54.7 µM
- GI50 [14]: 44.2 µM
- TGI [14]: > 100 µM
- GI50 [15]: 44.8 µM
- TGI [15]: > 100 µM
- GI50 [16]: 12 µM
- TGI [16]: 46.1 µM
- GI50 [17]: 7.28 µM
- TGI [17]: 42.8 µM
- GI50 [18]: 19.4 µM
- TGI [18]: 73.7 µM
- GI50 [19]: 26.6 µM
- TGI [19]: > 100 µM
- GI50 [20]: 15.5 µM
- TGI [20]: 57.5 µM
- GI50 [21]: 2.12 µM
- TGI [21]: 3.75 µM
- GI50 [22]: > 100 µM
- TGI [22]: > 100 µM
- GI50 [23]: 3.55 µM
- TGI [23]: 15.7 µM
- GI50 [24]: 34.9 µM
- TGI [24]: > 100 µM
- GI50 [25]: 50.8 µM
- TGI [25]: > 100 µM
- GI50 [26]: 0.316 µM
- TGI [26]: 1.23 µM
- GI50 [27]: 7.9 µM
- TGI [27]: > 100 µM
- GI50 [28]: 45.1 µM
- TGI [28]: > 100 µM
- GI50 [29]: 1.15 µM
- TGI [29]: 2.37 µM
- GI50 [30]: 14.1 µM
- TGI [30]: 43.4 µM
- GI50 [31]: 17.4 µM
- TGI [31]: 50.3 µM
- GI50 [32]: 4.68 µM
- TGI [32]: 36.9 µM
- GI50 [33]: > 100 µM
- TGI [33]: > 100 µM
- GI50 [34]: 59 µM
- TGI [34]: > 100 µM
- GI50 [35]: 1.98 µM
- TGI [35]: 4.61 µM
- GI50 [36]: 2.34 µM
- TGI [36]: 6.41 µM
- GI50 [37]: 16.5 µM
- TGI [37]: 35.8 µM
- GI50 [38]: 36.7 µM
- TGI [38]: > 100 µM
- GI50 [39]: 21.7 µM
- TGI [39]: 48.5 µM
- GI50 [40]: 95.9 µM
- TGI [40]: > 100 µM
- GI50 [41]: 10.8 µM
- TGI [41]: > 100 µM
- GI50 [42]: 4.7 µM
- TGI [42]: 16.6 µM
- GI50 [43]: 76.2 µM
- TGI [43]: > 100 µM
- GI50 [44]: 30.6 µM
- TGI [44]: > 100 µM
- GI50 [45]: 34.2 µM
- TGI [45]: > 100 µM
- GI50 [46]: 28.8 µM
- TGI [46]: 96.8 µM
- GI50 [47]: 3.11 µM
- TGI [47]: 15.2 µM
- GI50 [48]: > 100 µM
- TGI [48]: > 100 µM
- GI50 [49]: 10.1 µM
- TGI [49]: 44.1 µM
- GI50 [50]: 6.16 µM
- TGI [50]: 24.6 µM
- GI50 [51]: 6.96 µM
- TGI [51]: 47.9 µM
- GI50 [52]: 11 µM
- TGI [52]: 37.3 µM
- GI50 [53]: 81.4 µM
- TGI [53]: > 100 µM
- GI50 [54]: 2.11 µM
- TGI [54]: 8.44 µM
- GI50 [55]: 23.1 µM
- TGI [55]: > 100 µM
- GI50 [56]: 12.4 µM
- TGI [56]: > 100 µM

Structure (SMILES): CN(C)C(=O)[C@H](O)[C@H](Cc1ccccc1)NC(=O)c1cc2cc(Cl)ccc2[nH]1
- GI50 [57]: 22 µM
- TGI [57]: 66.5 µM
- GI50 [1]: 22.6 µM
- TGI [1]: 51.7 µM
- GI50 [2]: 19.5 µM
- TGI [2]: 33.7 µM
- GI50 [58]: 20.3 µM
- TGI [58]: 36.1 µM
- GI50 [3]: 20.8 µM
- TGI [3]: 50.9 µM
- GI50 [4]: 20.5 µM
- TGI [4]: 51.1 µM
- GI50 [5]: 26.9 µM
- TGI [5]: 65.8 µM
- GI50 [6]: 25.1 µM
- TGI [6]: 67.9 µM
- GI50 [7]: 25.3 µM
- TGI [7]: 57.1 µM
- GI50 [8]: 23.4 µM
- TGI [8]: 55.6 µM
- GI50 [9]: 19.1 µM
- TGI [9]: 36.1 µM
- GI50 [10]: 27.3 µM
- TGI [10]: 77 µM
- GI50 [11]: 21.2 µM
- TGI [11]: 55.4 µM
- GI50 [12]: 27.5 µM
- TGI [12]: 74.7 µM
- GI50 [13]: 22.2 µM
- TGI [13]: 50.2 µM
- GI50 [14]: 20.7 µM
- TGI [14]: 54.8 µM
- GI50 [15]: 25.8 µM
- TGI [15]: 64.8 µM
- GI50 [16]: 20.5 µM
- TGI [16]: 47.8 µM
- GI50 [17]: 34.8 µM
- TGI [17]: > 100 µM
- GI50 [18]: 26.7 µM
- TGI [18]: 61 µM
- GI50 [19]: 17.8 µM
- TGI [19]: 43 µM
- GI50 [20]: 30.7 µM
- TGI [20]: 91.7 µM
- GI50 [59]: 31.1 µM
- TGI [59]: 92 µM
- GI50 [21]: 16.6 µM
- TGI [21]: 30.5 µM
- GI50 [22]: 32.7 µM
- TGI [22]: 97.3 µM
- GI50 [23]: 28.1 µM
- TGI [23]: 77.5 µM
- GI50 [24]: 26.9 µM
- TGI [24]: 99.6 µM
- GI50 [25]: 20.5 µM
- TGI [25]: 37 µM
- GI50 [26]: 17.9 µM
- TGI [26]: 32.7 µM
- GI50 [27]: 16.5 µM
- TGI [27]: 31.5 µM
- GI50 [28]: 13.3 µM
- TGI [28]: 26.3 µM
- GI50 [29]: 14.4 µM
- TGI [29]: 27.7 µM
- GI50 [30]: 15.6 µM
- TGI [30]: 29.4 µM
- GI50 [31]: 25.1 µM
- TGI [31]: 77.8 µM
- GI50 [32]: 22.6 µM
- TGI [32]: 58.2 µM
- GI50 [33]: 28.1 µM
- TGI [33]: 67.7 µM
- GI50 [34]: 28.3 µM
- TGI [34]: 72.3 µM
- GI50 [35]: 36.4 µM
- TGI [35]: > 100 µM
- GI50 [36]: 27.3 µM
- TGI [36]: 70.6 µM
- GI50 [37]: 19.2 µM
- TGI [37]: 36.2 µM
- GI50 [38]: 32.7 µM
- TGI [38]: 96.8 µM
- GI50 [39]: 28.4 µM
- TGI [39]: 74.3 µM
- GI50 [40]: 23.1 µM
- TGI [40]: 57.5 µM
- GI50 [41]: 21.3 µM
- TGI [41]: 46.7 µM
- GI50 [43]: 21.8 µM
- TGI [43]: 44.2 µM
- GI50 [44]: 25.6 µM
- TGI [44]: 59.3 µM
- GI50 [46]: 18.4 µM
- TGI [46]: 41 µM
- GI50 [60]: 20.2 µM
- TGI [60]: 44.9 µM
- GI50 [47]: 31.2 µM
- TGI [47]: 88.4 µM
- GI50 [48]: 32 µM
- TGI [48]: 89.9 µM
- GI50 [49]: 32.9 µM
- TGI [49]: > 100 µM
- GI50 [50]: 25.9 µM
- TGI [50]: 77 µM
- GI50 [51]: 27 µM
- TGI [51]: > 100 µM
- GI50 [52]: 41.3 µM
- TGI [52]: > 100 µM
- GI50 [53]: 21.8 µM
- TGI [53]: 49.1 µM
- GI50 [54]: 15.4 µM
- TGI [54]: 31.8 µM
- GI50 [55]: 31.2 µM
- TGI [55]: > 100 µM
- GI50 [56]: 38.3 µM
- TGI [56]: > 100 µM
